For 10 compounds, IC50 results are on record in patent publication US8859541B2, “6-alkynylpyridines” (Boehringer Ingelheim International GmbH, priority 2012, dated 2014).

pIC50: −log10 of the molar value.

One assay concerns the target T1, XIAP BIR3 (Homo sapiens, UniProt P98170).
T1 construct: covering amino acids 241 to 356; XIAP BIR3; made in house; host or cells: E. coli
Briefly: XIAP BIR3 binding assay (DELFIA), displacement of SMAC peptide. To be noted: GST-fusion BIR3 domain (aa 241 to 356) 10 nM, SMAC peptide 10 nM; activity of the (S)-isomers. Summed up:
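Each BIR3 domain (10 nM) incubated with biotinylated N-terminal SMAC peptide (10 nM) and compound for 1 h at room temp in Tris/NaCl buffer with BSA, DTT and Triton X-100. Captured on streptavidin plates; bound BIR3 detected by Eu-labelled anti-GST time-resolved fluorescence, giving IC50 values.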

The next assay addresses T2, cIAP1 BIR3 (Homo sapiens, UniProt Q13490).
T2 construct: covering amino acids 256 to 363; cIAP1 BIR3; made in house; host or cells: E. coli
The assay is described as follows: cIAP1 BIR3 binding assay (DELFIA), displacement of SMAC peptide. As to conditions: GST-fusion BIR3 domain (aa 256 to 363) 10 nM, SMAC peptide 10 nM; activity of the (S)-isomers. As for the experimental part:
Biological Methods XIAP BIR3 and cIAP1 BIR3 Binding Assays (DELFIA)
Peptide […]-Lys(Biotin), representing the N-terminus of mature human SMAC (SMAC peptide), was used as interaction partner in the protein-peptide interaction assay.
BIR3 domains (10 nM) were incubated with SMAC peptide (10 nM) in Assay Buffer (50 mM Tris, 120 mM NaCl, 0.1% BSA, 1 mM DTT, 0.05% TritonX100) for one hour at room temperature in the presence of inhibitiory compounds. The assay mixture was transferred to a strepatvidin coated plate and incubated for one hour at room temperature to allow binding of the biotinylated peptide and associated BIR3 domains to the plate. After several washing steps Eu labeled anti-GST antibody (e.g. Perkin Elmer DELFIA Eu-N1-antiGST AD0250) was added to detect BIR3 domain-SMAC peptide interactions according to Perkin Elmer's instructions. […] Time resolved Europium fluoresecence was measured in a Wallac Victor using Standard assay settings.
DELFIA assay results were plotted against compound concentrations and Software GraphPad Prizm was used to calculate half maximal inhibitory concentrations (IC50 values).

T2 sequence (Q13490 256-363): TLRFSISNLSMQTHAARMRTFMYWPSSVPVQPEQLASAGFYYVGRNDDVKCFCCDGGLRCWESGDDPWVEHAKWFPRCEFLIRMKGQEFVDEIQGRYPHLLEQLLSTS
T1 sequence (P98170 241-356): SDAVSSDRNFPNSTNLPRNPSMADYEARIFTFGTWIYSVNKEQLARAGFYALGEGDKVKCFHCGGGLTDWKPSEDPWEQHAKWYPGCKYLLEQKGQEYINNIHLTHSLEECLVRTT

One may read the pIC50 as the negative decadic logarithm of the IC50, by convention in mol/L. Read a high pIC50 as a low IC50. With `CNC(C)C(=O)Nc1ccc(-c2c(C)nc(N(C)C)nc2C)c(C#Cc2ccc3c(ccc(=O)n3C)c2)n1` (centres unmarked) [Example 75, N-[5-[2-(dimethylamino)-4,6-dimethylpyrimidin-5-yl]-6-[2-(1-methyl-2-oxoquinolin-6-yl)-ethynyl]pyridin-2-yl]-2-(methyl-amino)propanamide], the pIC50 was 5.78 on XIAP BIR3 and 9.00 at cIAP1 BIR3.

Consider `CNC(C)C(=O)Nc1ccc(-c2c(C)nc3ccccn23)c(C#Cc2ccc3c(OC)nccc3c2)n1` (centres unmarked) [Example 77, N-[6-[2-(1-methoxyisoquinolin-6-yl)ethynyl]-5-(2-methyl-imidazo[1,2-a]pyridin-3-yl)-pyridin-2-yl]-2-(methylamino)-propanamide], for which the pIC50 at XIAP BIR3 is 6.71; on cIAP1 BIR3 it was 9.00.

For `CNC(C)C(=O)Nc1ccc(-c2c(-c3ccncc3)nc3cc(C)ccn23)c(C#Cc2ccc(F)c3ncccc23)n1` (centres unmarked) [Example 78, N-[6-[2-(8-fluoroquinolin-5-yl)-ethynyl]-5-(7-methyl-2-pyridin-4-ylimidazo[1,2-a]pyridin-3-yl)-pyridin-2-yl]-2-(methylamino)-propanamide], the pIC50 on XIAP BIR3 is 7.33; at cIAP1 BIR3 it was 8.70.

For the compound `CNC(C)C(=O)Nc1ccc(-c2c(C)nc(N3CCCC3)nc2C)c(C#Cc2ccc3c(ccc(=O)n3C)c2)n1` (centres unmarked) [Example 79, N-[5-(4,6-dimethyl-2-pyrrolidin-1-ylpyrimidin-5-yl)-6-[2-(1-methyl-2-oxoquinolin-6-yl)-ethynyl]pyridin-2-yl]-2-(methyl-amino)propanamide], the pIC50 on XIAP BIR3 is 5.62; at cIAP1 BIR3, 9.00.

As for `CNC(C)C(=O)Nc1ccc(-c2c(C)nc(N3CCCC3)nc2C)c(C#Cc2ccc3ncccc3c2)n1` (centres unmarked) [Example 80, N-[5-(4,6-dimethyl-2-pyrrolidin-1-ylpyrimidin-5-yl)-6-(2-quinolin-6-ylethynyl)pyridin-2-yl]-2-(methylamino)propan-amide], the negative logarithm of the IC50 (pIC50) on XIAP BIR3 was 5.88; at cIAP1 BIR3 it was 9.00.

On to `CNC(C)C(=O)Nc1ccc(-c2c(-c3ccncc3)nc3cc(C)ccn23)c(C#Cc2ccc3c(ccc(=O)n3C)c2)n1` (centres unmarked) [Example 81, 2-(methylamino)-N-[6-[2-(1-methyl-2-oxoquinolin-6-yl)-ethynyl]-5-(7-methyl-2-pyridin-4-ylimidazo[1,2-a]pyridin-3-yl)-pyridin-2-yl]propanamide], for which the pIC50 at XIAP BIR3 was 6.60; on cIAP1 BIR3, 9.00.

On to `CNC(C)C(=O)Nc1ccc(-c2c(-c3ccncc3)nc3cc(C)ccn23)c(C#Cc2ccc(-c3ccon3)cc2)n1` (centres unmarked) [Example 82, 2-(methylamino)-N-[5-(7-methyl-2-pyridin-4-ylimidazo[1,2-a]pyridin-3-yl)-6-[2-[4-(1,2-oxazol-3-yl)phenyl]-ethynyl]pyridin-2-yl]propan-amide], for which the pIC50 at XIAP BIR3 was 7.21; at cIAP1 BIR3, 9.00.

Turning to `CNC(C)C(=O)Nc1ccc(-c2c(C)nc(N3CCOCC3)nc2C)c(C#Cc2ccc3c(c2)CC(=O)N3C)n1` (centres unmarked) [Example 87, N-[5-(4,6-dimethyl-2-morpholin-4-ylpyrimidin-5-yl)-6-[2-(1-methyl-2-oxo-3H-indol-5-yl)ethynyl]pyridin-2-yl]-2-(methylamino)propanamide], the pIC50 is 5.84 at XIAP BIR3 and 9.00 at cIAP1 BIR3.

Turning to `CNC(C)C(=O)Nc1ccc(-c2c(C)nc3ccccn23)c(C#Cc2ccc(-n3ccnc3)cc2)n1` (centres unmarked) [Example 88, N-[6-[2-(4-imidazol-1-ylphenyl)ethynyl]-5-(2-methyl-imidazo[1,2-a]pyridin-3-yl)-pyridin-2-yl]-2-(methylamino)-propanamide], the pIC50 at XIAP BIR3 was 6.68; at cIAP1 BIR3, 9.00.

For `CNC(C)C(=O)Nc1ccc(-c2c(C)nc3ccccn23)c(C#Cc2cccc3ncccc23)n1` (centres unmarked) [Example 89, 2-(methylamino)-N-[5-(2-methylimidazo[1,2-a]pyridin-3-yl)-6-(2-quinolin-5-ylethynyl)-pyridin-2-yl]propanamide], the pIC50 was 7.04 at XIAP BIR3 and 8.70 at cIAP1 BIR3.
